The values that follow come from ChEMBL document CHEMBL3046469, “Fungicidal Activities of 2-(Substituted Phenoxymethyl)phenyl-2-methoxyiminoacaetamide Derivatives” (1998).

Format in all cases: functional
In assay [1] the test system is Pyricularia oryzae. The assay can be described thus: Fungicidal activity against Magnaporthe oryzae assessed as rice blast disease control at 2 ppm foliar application for 24 hr before inoculation at 27 +/- 2 degC measured after 5 days by preventive manner.
Assay [2] relates to Pseudoperonospora cubensis. The experiment in a line: Fungicidal activity against Pseudoperonospora cubensis assessed as cucumber downy mildew disease control at 2 ppm foliar application 24 hr before inoculation onto the adaxial(treated) surface of leaf by preventive manner.
Assay [3] deals with Podosphaera fuliginea. The assay can be described thus: Fungicidal activity against Podosphaera fuliginea assessed as cucumber powdery mildew control at 2 ppm foliar application 24 hr after inoculation at 23 +/- 2 degC by curative manner.
The subject of assay [4] is Podosphaera fuliginea. The assay can be described thus: Fungicidal activity against Podosphaera fuliginea assessed as cucumber powdery mildew control at 2 ppm foliar application 24 hr before inoculation at 23 +/- 2 degC by preventive manner.
The subject of assay [5] is Pyricularia oryzae. The assay can be described thus: Fungicidal activity against Magnaporthe oryzae assessed as rice blast disease control at 2 ppm foliar application for 24 hr after inoculation at 27 +/- 2 degC measured after 5 days by curative manner.
Assay [6] has as its system Botrytis cinerea. The experiment in a line: Fungicidal activity against Botryotinia fuckeliana assessed as cucumber gray mold disease control at 7.8 ppm foliar application […] at 22 +/- 2 degC by preventive manner.
The subject of assay [7] is Blumeria graminis f. sp. tritici. The experiment in a line: Fungicidal activity against Blumeria graminis f. sp. tritici assessed as wheat powdery mildew disease control at 7.8 ppm foliar application 48 hr after inoculation by curative manner.
Assay [8] concerns Botrytis cinerea. The assay can be described thus: Fungicidal activity against Botryotinia fuckeliana assessed as cucumber gray mold disease control at 7.8 ppm foliar application […] at 22 +/- 2 degC by curative manner.
Assay [9] deals with Blumeria graminis f. sp. tritici. The assay can be described thus: Fungicidal activity against Blumeria graminis f. sp. tritici assessed as wheat powdery mildew disease control at 2 ppm foliar application for 48 hr before inoculation by preventive manner.
Assay [10] relates to Thanatephorus cucumeris. The experiment in a line: Fungicidal activity against Thanatephorus cucumeris assessed as rice sheath blight disease control at 31.3 ppm foliar application for 24 hr before inoculation at 26 +/- 2 degC measured after 5 days by preventive manner.
Assay [11] concerns Pseudoperonospora cubensis. The experiment in a line: Fungicidal activity against Pseudoperonospora cubensis assessed as cucumber downy mildew disease control at 125 ppm foliar application 24 hr before inoculation onto the abaxial(untreated) surface of leaf by preventive manner.
The test system of assay [12] is Blumeria graminis f. sp. tritici. The experiment in a line: Fungicidal activity against Blumeria graminis f. sp. tritici assessed as wheat powdery mildew disease control at 7.8 ppm foliar application 48 24 hr before inoculation by preventive manner.
Assay [13] concerns Pseudoperonospora cubensis. The experiment in a line: Fungicidal activity against Pseudoperonospora cubensis assessed as cucumber downy mildew disease control at 31.3 ppm foliar application 24 hr before inoculation onto the abaxial(untreated) surface of leaf by preventive manner.
Assay [14] concerns Pyricularia oryzae. The experiment in a line: Fungicidal activity against Magnaporthe oryzae assessed as rice blast disease control at 31.3 ppm foliar application for 24 hr before inoculation at 27 +/- 2 degC measured after 5 days by preventive manner.
Assay [15] deals with Podosphaera fuliginea. The experiment in a line: Fungicidal activity against Podosphaera fuliginea assessed as cucumber powdery mildew control at 31.3 ppm foliar application 24 hr before inoculation at 23 +/- 2 degC by preventive manner.
In assay [16] the test system is Pyricularia oryzae. The assay can be described thus: Fungicidal activity against Magnaporthe oryzae assessed as rice blast disease control at 31.3 ppm foliar application for 24 hr after inoculation at 27 +/- 2 degC measured after 5 days by curative manner.
Assay [17] relates to Pseudoperonospora cubensis. The experiment in a line: Fungicidal activity against Pseudoperonospora cubensis assessed as cucumber downy mildew disease control at 7.8 ppm foliar application 24 hr before inoculation onto the adaxial(treated) surface of leaf by preventive manner.
The test system of assay [18] is Podosphaera fuliginea. The experiment in a line: Fungicidal activity against Podosphaera fuliginea assessed as cucumber powdery mildew control at 31.3 ppm foliar application 24 hr after inoculation at 23 +/- 2 degC by curative manner.
The test system of assay [19] is Thanatephorus cucumeris. The assay can be described thus: Fungicidal activity against Thanatephorus cucumeris assessed as rice sheath blight disease control at 125 ppm foliar application for 24 hr before inoculation at 26 +/- 2 degC measured after 5 days by preventive manner.
In assay [20] the test system is Botrytis cinerea. The assay can be described thus: Fungicidal activity against Botryotinia fuckeliana assessed as cucumber gray mold disease control at 31.3 ppm foliar application […] at 22 +/- 2 degC by preventive manner.
In assay [21] the test system is Blumeria graminis f. sp. tritici. The assay can be described thus: Fungicidal activity against Blumeria graminis f. sp. tritici assessed as wheat powdery mildew disease control at 31.3 ppm foliar application for 48 hr after inoculation by curative manner.
Assay [22] relates to Pseudoperonospora cubensis. The experiment in a line: Fungicidal activity against Pseudoperonospora cubensis assessed as cucumber downy mildew disease control at 7.8 ppm foliar application 24 hr before inoculation onto the abaxial(untreated) surface of leaf by preventive manner.
The subject of assay [23] is Thanatephorus cucumeris. The assay can be described thus: Fungicidal activity against Thanatephorus cucumeris assessed as rice sheath blight disease control at 7.8 ppm foliar application for 24 hr before inoculation at 26 +/- 2 degC measured after 5 days by preventive manner.
Assay [24] concerns Blumeria graminis f. sp. tritici. The assay can be described thus: Fungicidal activity against Blumeria graminis f. sp. tritici assessed as wheat powdery mildew disease control at 2 ppm foliar application for 48 hr after inoculation by curative manner.
The test system of assay [25] is Botrytis cinerea. The assay can be described thus: Fungicidal activity against Botryotinia fuckeliana assessed as cucumber gray mold disease control at 2 ppm foliar application […] at 22 +/- 2 degC by curative manner.
For assay [26], the system named is Pyricularia oryzae. The assay can be described thus: Fungicidal activity against Magnaporthe oryzae assessed as rice blast disease control at 7.8 ppm foliar application for 24 hr after inoculation at 27 +/- 2 degC measured after 5 days by curative manner.
Assay [27] has as its system Pseudoperonospora cubensis. The assay can be described thus: Fungicidal activity against Pseudoperonospora cubensis assessed as cucumber downy mildew disease control at 2 ppm foliar application 24 hr before inoculation onto the abaxial(untreated) surface of leaf by preventive manner.

For the compound `CNC(=O)/C(=N/OC)c1ccccc1COc1ccc(-c2ccccc2)cc1`, the Activity (in the assay on Pyricularia oryzae [1]; in assay [2]; in the assay with Podosphaera fuliginea [3]; in the assay on Podosphaera fuliginea [4]; with Pyricularia oryzae [5]; with Botrytis cinerea [6]) was 90% in each case. The Activity (in assay [7]; in the assay with Botrytis cinerea [8]; in [9]; in the assay with Thanatephorus cucumeris [10]; in [11]) was 90% in each case.
With `CNC(=O)/C(=N/OC)c1ccccc1COc1ccccc1`, the Activity (in [12]; in [13]; with Pyricularia oryzae [14]; in the assay on Botrytis cinerea [8]; in the assay with Podosphaera fuliginea [15]; in the assay on Pyricularia oryzae [16]) was 90% in each case. In addition, the Activity (in assay [17]; with Podosphaera fuliginea [18]; in the assay on Thanatephorus cucumeris [19]; in the assay with Botrytis cinerea [20]; in assay [21]) was 90% each time.
Regarding `CNC(=O)/C(=N/OC)c1ccccc1COc1cc(C)ccc1C`, the Activity (with Pyricularia oryzae [1]; in assay [2]; in the assay on Podosphaera fuliginea [3]; in the assay on Podosphaera fuliginea [4]; in the assay with Pyricularia oryzae [5]; in the assay with Botrytis cinerea [6]) was 90% throughout. Moreover, the Activity (in assay [22]; with Thanatephorus cucumeris [23]; in assay [9]; in assay [24]; with Botrytis cinerea [25]) was 90% each time.
On to `CNC(=O)/C(=N/OC)c1ccccc1COc1ccc(Cl)cc1`, for which the Activity (in assay [2]; in the assay with Podosphaera fuliginea [3]; in the assay on Podosphaera fuliginea [4]; with Botrytis cinerea [6]; in [22]; in the assay with Pyricularia oryzae [14]) was 90% each time. For the same compound, the Activity with Pyricularia oryzae [26] was 90%; in assay [9], 90%; in assay [24] it was 90%; in the assay on Thanatephorus cucumeris [19], below 90%; in the assay on Botrytis cinerea [25] it was 90%.
Turning to `CNC(=O)/C(=N/OC)c1ccccc1COc1cc(Cl)ccc1Cl`, the Activity (in assay [2]; in assay [27]; with Podosphaera fuliginea [4]; in the assay on Botrytis cinerea [6]; with Pyricularia oryzae [14]; in assay [9]) was 90% each time. Also, the Activity in the assay with Thanatephorus cucumeris [10] is listed as 90%.
